The target in assay [1] is T1, human adenosine A1 receptor (Homo sapiens, UniProt P30542).
T1 construct: expressed in transfected cells; host or cells: CHO-K1
T1 sequence (P30542 1-326): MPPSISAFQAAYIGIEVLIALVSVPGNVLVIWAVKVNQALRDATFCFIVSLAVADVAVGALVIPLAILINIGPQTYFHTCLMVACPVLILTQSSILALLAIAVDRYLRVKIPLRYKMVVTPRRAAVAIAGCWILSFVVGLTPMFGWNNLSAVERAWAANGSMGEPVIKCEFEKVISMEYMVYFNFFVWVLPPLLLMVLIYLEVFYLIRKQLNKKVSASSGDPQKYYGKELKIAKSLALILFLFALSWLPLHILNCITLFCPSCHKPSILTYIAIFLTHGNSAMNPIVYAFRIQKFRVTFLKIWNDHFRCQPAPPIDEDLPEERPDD
Description: Adenosine A1 Receptor Functional Assay (A1GAL2). In kind it is cell-based. To be noted: CHO-K1 cells, cAMP inducible beta-galactosidase reporter, 4 nM r-PIA/1 uM Forskolin challenge. The method, then: Adenosine A1 Receptor Functional Assay (A1GAL2)
(§1) To initiate the functional assay, cryopreserved CHO-K1 cells overexpressing the human adenosine A1 receptor and containing a cAMP inducible beta-galactosidase reporter gene were thawed, centrifuged, DMSO containing media removed, and then seeded with fresh culture media into clear 384-well tissue culture treated plates (BD #353961) at a concentration of 10K cells/well. Prior to assay, these plates were cultured for two days at 37° C., 5% CO2, 90% Rh. On the day of the functional assay, culture media was removed and replaced with 45 uL assay medium (Hams/F-12 Modified (Mediatech #10-080CV) supplemented w/0.1% BSA). Test compounds were diluted and 11 point curves created at a 1000× concentration in 100% DMSO. Immediately after addition of assay media to the cell plates, 50 nL of the appropriate test compound antagonist or agonist control curves were added to cell plates using a Cartesian Hummingbird. Compound curves were allowed to incubate at room temperature on cell plates for approximately 15 minutes before addition of a 4 nM r-PIA (Sigma P4532)/1 uM Forskolin (Sigma F3917) agonist challenge (5 uL volume). A control curve of r-PIA in 1 uM Forskolin, a DMSO/Media control, and a single dose of Forskolin were also included on each plate. After additions, cell plates were allowed to incubate at 37° C., 5% CO2, 90% Rh for 5.5-6 hours. After incubation, media was removed, and cell plates were washed 1×50 uL with DPBS w/o Ca & Mg (Mediatech 21-031-CV). Into dry wells, 20 uL of 1× Reporter Lysis Buffer (Promega E3971 (diluted in dH2O from 5× stock)) was added to each well and plates frozen at −20° C. overnight. For β-galactosidase enzyme calorimetric assay, plates were thawed out at room temperature and 20 μL 2× assay buffer (Promega) was added to each well. Color was allowed to develop at 37° C., 5% CO2, 90% Rh for 1-1.5 h or until reasonable signal appeared. The calorimetric reaction was stopped with the addition of 60 μL/well 1M sodium carbonate. Plates were counted at 405 nm on a SpectraMax Microplate Reader (Molecular Devices). Data was analyzed in Microsoft Excel and IC/EC50 curves were fit using a standardized macro.

In assay [2] the target is T2, human A2a adenosine receptor (Homo sapiens, UniProt P29274).
T2 construct: purchased PerkinElmer RB-HA2a; host or cells: HEK293 plasma membranes
T2 sequence (P29274 whole entry): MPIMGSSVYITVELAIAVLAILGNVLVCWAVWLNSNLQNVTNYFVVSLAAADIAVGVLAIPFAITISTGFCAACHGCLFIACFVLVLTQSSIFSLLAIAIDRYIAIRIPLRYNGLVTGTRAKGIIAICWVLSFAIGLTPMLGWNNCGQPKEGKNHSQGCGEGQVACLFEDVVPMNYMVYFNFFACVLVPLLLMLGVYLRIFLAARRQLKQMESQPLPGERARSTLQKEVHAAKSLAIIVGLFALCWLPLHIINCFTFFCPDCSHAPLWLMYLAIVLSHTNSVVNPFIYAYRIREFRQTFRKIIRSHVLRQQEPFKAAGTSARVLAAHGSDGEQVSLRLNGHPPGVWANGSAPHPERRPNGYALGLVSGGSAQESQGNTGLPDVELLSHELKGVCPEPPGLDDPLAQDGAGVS
The experiment in a line: Ligand Binding Assay for Adenosine A2a Receptor. To be noted: HEK293 plasma membrane, radioligand [3H]CGS21680; read-out: A2A-B Ki. How it is done: Ligand Binding Assay for Adenosine A2a Receptor
Ligand binding assay of adenosine A2a receptor was performed using plasma membrane of HEK293 cells containing human A2a adenosine receptor (PerkinElmer, RB-HA2a) and radioligand [^3H]CGS21680 (PerkinElmer, NET1021). Assay was set up in 96-well polypropylene plate in total volume of 200 μL by sequentially adding 20 μL 1:20 diluted membrane, 130 μL assay buffer (50 mM Tris.HCl, pH7.4 10 mM MgCl2, 1 mM EDTA) containing [^3H] CGS21680, 50 μL diluted compound (4×) or vehicle control in assay buffer. Nonspecific binding was determined by […] NECA. Reaction was carried out at room temperature for 2 hours before filtering through 96-well GF/C filter plate pre-soaked in 50 mM Tris.HCl, pH7.4 containing 0.3% polyethylenimine. Plates were then washed 5 times with cold 50 mM Tris.HCl, pH7.4, dried and sealed at the bottom. Microscintillation fluid 30 μL was added to each well and the top sealed. Plates were counted on Packard Topcount for [^3H]. Data was analyzed in Microsoft Excel and GraphPad Prism programs. (Varani, K.; Gessi, S.; Dalpiaz, A.; Borea, P. A. British Journal of Pharmacology, 1996, 117, 1693)

Assay [3] addresses T3, human adenosine A2a receptor (Homo sapiens, UniProt P29274).
T3 construct: expressed in transfected cells; host or cells: CHO-K1
The experiment in a line: Adenosine A2a Receptor Functional Assay (A2AGAL2). In kind it is cell-based. To be noted: CHO-K1 cells, cAMP inducible beta-galactosidase reporter, 15 nM NECA agonist challenge. The method, then:
Adenosine A2a Receptor Functional Assay (A2AGAL2)
as §1, with “Prior” for “To initiate the functional assay, cryopreserved CHO-K1 cells overexpressing the human adenosine A1 receptor and containing a cAMP inducible beta-galactosidase reporter gene were thawed, centrifuged, DMSO containing media removed, and then seeded with fresh culture media into clear 384-well tissue culture treated plates (BD #353961) at a concentration of 10K cells/well. Prior”, “Compound curves were allowed to incubate at room temperature on cell plates for approximately 15 minutes before addition of a 4 nM r-PIA (Sigma P4532)/1 uM Forskolin (Sigma F3917) agonist challenge (5 uL volume).” left out, “NECA,” for “r-PIA in 1 uM Forskolin,”, “Forskolin (Sigma F3917)” for “Forskolin”, “colorimetric” for “calorimetric”

One may read the Ki as a measure of affinity in units of concentration, obtained from inhibition or displacement.

T3 sequence (P29274 whole entry): as above

`COc1ccccc1C(O)c1cc2c(N)nc(-c3ccc(C)o3)nc2s1` (stereo not drawn) [Example 11, [4-Amino-2-(5-methyl-furan-2-yl)-thieno[2,3-d]pyrimidin-6-yl]-(2-methoxy-phenyl)-methanol]: the Ki in assay [1] came out at 10.2 nM; in assay [2], 6.72 nM; in assay [3], 1.98 nM.
On to `COc1ccccc1Cc1cc2c(N)nc(-c3ccc(C)o3)nc2s1` [Example 12, 6-(2-Methoxy-benzyl)-2-(5-methyl-furan-2-yl)-thieno[2,3-d]pyrimidin-4-ylamine], for which the results for the Ki in assay [1], in assay [2] and in assay [3] were 115 nM, 51 nM and 10.1 nM, respectively.
Take `Nc1nc(-c2cccnc2)nc2sc(Cc3ccccc3)cc12` [Example 13, 6-Benzyl-2-pyridin-3-yl-thieno[2,3-d]pyrimidin-4-ylamine]: the values for the Ki in assay [1], in assay [2] and in assay [3] were 1420 nM, 192 nM and 215 nM, respectively.
In the same order, the values of `Cc1csc(-c2nc(N)c3cc(Cc4ccccc4)sc3n2)n1` [Example 14, 6-Benzyl-2-(4-methyl-thiazol-2-yl)-thieno[2,3-d]pyrimidin-4-ylamine] are 1490 nM, 46.3 nM and 16.1 nM.
Regarding `Cc1ccc(-c2nc(N)c3cc(CCc4ccccc4)sc3n2)o1` [Example 22, 2-(5-Methyl-furan-2-yl)-6-phenethyl-thieno[2,3-d]pyrimidin-4-ylamine], the Ki in assay [1] was 2760 nM; in assay [2] it was 50 nM; in assay [3], 189 nM.
Regarding `Cc1ccc(-c2nc(N)c3cc(CCc4ccc(F)cc4)sc3n2)o1` [Example 29, 6-[2-(4-Fluoro-phenyl)-ethyl]-2-(5-methyl-furan-2-yl)-thieno[2,3-d]pyrimidin-4-ylamine], the Ki is 1570 nM in assay [1], 6.61 nM in assay [2] and 61.2 nM in assay [3].
For the compound `Cc1ccc(-c2nc(N)c3cc(/C=C/c4ccc(F)cc4)sc3n2)o1` [Example 30, 6-[2-(4-Fluoro-phenyl)-vinyl]-2-(5-methyl-furan-2-yl)-thieno[2,3-d]pyrimidin-4-ylamine], the Ki in assay [1] is 20200 nM; in assay [2], 173 nM; in assay [3] it was 938 nM.
`Cc1ccc(-c2nc(N)c3cc(/C=C/c4ccccc4)sc3n2)o1` [Example 33, 2-(5-Methyl-furan-2-yl)-6-styryl-thieno[2,3-d]pyrimidin-4-ylamine]: the results for the Ki in assay [1], in assay [2] and in assay [3] were 3340 nM, 26 nM and 236 nM, respectively.
For `Nc1nc(-c2ccc(C(F)F)o2)nc2sc(C(O)c3ccccc3)cc12` (stereo not drawn) [Example 41, [4-Amino-2-(5-difluoromethyl-furan-2-yl)-thieno[2,3-d]pyrimidin-6-yl]-phenyl-methanol], the Ki in assay [1] was found to be 223 nM; in assay [2] it was 17.9 nM; in assay [3], 11.3 nM.
For `Nc1nc(-c2ccc(C(F)F)o2)nc2sc(Cc3ccccc3)cc12` [Example 43, 6-Benzyl-2-(5-difluoromethyl-furan-2-yl)-thieno[2,3-d]pyrimidin-4-ylamine], in that order: 3000 nM, 37.5 nM and 25.2 nM.

For the origin of these results see patent publication US20100093721A1, “PHENYL AND HETEROARYL SUBSTITUTED THIENO[2,3-d]PYRIMIDINES AND THEIR USE AS ADENOSINE A2a RECEPTOR ANTAGONISTS” (priority 2008, published 2010).
